Laboratory results: patent US20040072738A1, “Analogues of thiocoraline and be-22179” (priority 2000, published 2004)
Values after ≈ are worked out from the molar mass of the structure shown. Bridge positions count the residues as written; N and C are the ends. Square brackets hold non-standard residues; d marks the D form. Peptide text beside a SMILES is read from it. I, II: the chains in the order shown. * marks the point of attachment. Quinaldoyl(3-OH,6-OMe) = COc1ccc2nc(C(=O)*)c(O)cc2c1; Quinoxaline2carbonyl = O=C(c1cnc2ccccc2n1)*; Quinaldoyl(3-OH) = O=C(c1nc2ccccc2cc1O)*; Fmoc = O=C(OCC1c2ccccc2-c2ccccc21)*; Quinaldoyl = O=C(c1ccc2ccccc2n1)*; NMeC = CN[C@@H](CS)C(=O)O; Cbz = O=C(OCc1ccccc1)*; NMeDha = C=C(NC)C(=O)O

Legend:
[1] = cytotoxic activity in the L1210 assays
[2] = solubility in aqueous buffer; assay type: physicochemical
L1210 cell line = assay: cytotoxic activity in the L1210 assays; settings: L1210 assays
supercoiled ΦX174 DNA = assay: unwinding and rewinding of negatively supercoiled DNA, agarose gel electrophoresis; assay type: biochemical
From the text: Confirmation that thiocoraline and BE-22179 bind to DNA with bisintercalation was derived from their ability to induce the unwinding of negatively supercoiled DNA. This was established by their ability to gradually decrease the agarose gel electrophoresis mobility of supercoiled ΦX174 DNA (unwinding) at increasing concentrations followed by a return to normal mobility (rewinding) at even higher concentrations. Under the conditions employed, echinomycin unwound ΦX174 DNA at a 0.044 agent/base pair ratio (FIG. 11 and FIG. 12). Thiocoraline completely unwound ΦX174 DNA at a higher 0.11 agent/base pair ratio, whereas BE-22179 required even higher concentrations producing the unwinding at an agent/base pair ratio of 1.1. […] Thus, the distinctions in 1 and 2 and echinomycin detected here appear to be related to the nature of the cyclic depsipeptide and not the structure of the chromophore.
FIG. 8 is a table of comparative DNA binding properties. ^aCalf thymus DNA, KB=apparent binding constant determined by fluorescence quenching. The value in paren-theses is the agent/base pair ratio at saturated high-affinity binding and may be considered a measure of the selectivity of binding. ^bAgent/base pair ratio required to unwind negatively supercoiled FX174 DNA (form I to form II gel mobility, 0.9% agarose gel). ^cAgent/base pair ratio required to induce complete rewinding or positive super-coiling of FX174 DNA (form II to form I gel mobility, 0.9% agarose gel). ^dBinding constant established by footprinting at a 5′-CCGC site (FIG. 9).
(A) Lane 1, untreated supercoiled FX174 DNA, 95% form 1 and 5% form II; lanes 2-8, thiocoraline-treated FX174 DNA; lanes 9-14, echinomycin-treated FX174 DNA. The [agent]-to-[base pair] ratios were 0.022 (lanes 2 and 9), 0.033 (lanes 3 and 10), 0.044 (lanes 4 and 11), 0.066 (lanes 5 and 12), 0.11 (lanes 6 and 13), 0.22 (lanes 7 and 14), and 0.44 (lane 8). (B) Lane 1, untreated supercoiled FX174 DNA, lanes 2-12, BE-22179-treated FX174 DNA. The [agent]-to-[base pair] ratios were 0.022, (lane 2), 0.033 (lane 3), 0.044 (lane 4), 0.066 (lane 5), 0.11 (lane 6), 0.22 (lane 7), and 0.33 (lane 8), 0.44 (lane 9), 0.66 (lane 10), 1.1 (lane 11), and 2.2 (lane 12). (C) Lane 1, untreated supercoiled FX174 DNA, 95% form 1 and 5% form II; lanes 2-8, thiocoraline analogue (27)-treated FX174 DNA. The [agent]-to-[base pair] ratios were 0.022 (lane 2), 0.033 (lane 3), 0.044 (lane 4), 0.066 (lane 5), 0.11 (lane 6), 0.22 (lane 7), and 0.44 (lane 8).

[3] = biological target: HIV-1 reverse transcriptase (Human immunodeficiency virus type 1 group M subtype B, UniProt P03366); assay: inhibition of HIV-1 reverse transcriptase; assay type: biochemical

C=C1C(=O)SC[C@@H](NC(=O)c2nc3ccccc3cc2O)C(=O)NCC(=O)N(C)[C@H]2CSSC[C@@H](C(=O)N1C)N(C)C(=O)CNC(=O)[C@H](NC(=O)c1nc3ccccc3cc1O)CSC(=O)C(=C)N(C)C2=O [BE-22179] (I: {Quinaldoyl(3-OH)}-[dC]G[NMeC][NMeDha] / II: {Quinaldoyl(3-OH)}-[dC]G[NMeC][NMeDha]; thioester I:1-II:C, I:C-II:1; disulfide I:3-II:3)
IC50 [1]: 0.4 nM | solubility ([2]; Tris-HCl pH 7.4, 75 mM NaCl, read-out: agent concentrations where the compounds are soluble): 1 to 10 µM (≈ 1.06 to 10.6 µg/mL)

CSC[C@H]1C(=O)SC[C@@H](NC(=O)OCc2ccccc2)C(=O)NCC(=O)N(C)[C@H]2CSSC[C@@H](C(=O)N1C)N(C)C(=O)CNC(=O)[C@H](NC(=O)OCc1ccccc1)CSC(=O)[C@H](CSC)N(C)C2=O [Compound 23, [N-Cbz-D-Cys-Gly-NMe-L--Cys-NMe-L--Cys(Me)]2 (Cysteine Thiol) Dilactone] (I: Cbz-[dC]G[NMeC][NMeC](Me) / II: Cbz-[dC]G[NMeC][NMeC](Me); thioester I:1-II:C, I:C-II:1; disulfide I:3-II:3)
cytotoxic activity (in words) (L1210 cell line): inactive

CSC[C@H]1C(=O)SC[C@@H](NC(=O)c2ccc3ccccc3n2)C(=O)NCC(=O)N(C)[C@H]2CSSC[C@@H](C(=O)N1C)N(C)C(=O)CNC(=O)[C@H](NC(=O)c1ccc3ccccc3n1)CSC(=O)[C@H](CSC)N(C)C2=O [Compound 26, [N-(2-Quinoline Carboxyl)-D-Cys-Gly-NMe-L--Cys-NMe-L--Cys(Me)]2 (Cysteine Thiol) Dilactone] (I: Quinaldoyl-[dC]G[NMeC][NMeC](Me) / II: Quinaldoyl-[dC]G[NMeC][NMeC](Me); thioester I:1-II:C, I:C-II:1; disulfide I:3-II:3)
cytotoxic activity (in words) (L1210 cell line): less potent cytotoxic activity

CSC[C@H]1C(=O)SC[C@@H](NC(=O)c2cnc3ccccc3n2)C(=O)NCC(=O)N(C)[C@H]2CSSC[C@@H](C(=O)N1C)N(C)C(=O)CNC(=O)[C@H](NC(=O)c1cnc3ccccc3n1)CSC(=O)[C@H](CSC)N(C)C2=O [Compound 27, [N-(2-Quinoxaline carboxyl)-D-Cys-Gly-NMe-L--Cys-NMe-L--CYS(Me)]2 (Cysteine Thiol) Dilactone] (I: Quinoxaline2carbonyl-[dC]G[NMeC][NMeC](Me) / II: Quinoxaline2carbonyl-[dC]G[NMeC][NMeC](Me); thioester I:1-II:C, I:C-II:1; disulfide I:3-II:3)
cytotoxic activity (in words) (L1210 cell line): less potent cytotoxic activity

COc1ccc2nc(C(=O)N[C@@H]3CSC(=O)[C@H](CSC)N(C)C(=O)[C@@H]4CSSC[C@@H](C(=O)N(C)[C@@H](CSC)C(=O)SC[C@@H](NC(=O)c5nc6ccc(OC)cc6cc5O)C(=O)NCC(=O)N4C)N(C)C(=O)CNC3=O)c(O)cc2c1 [Compound 28, [N-(3-Hydroxy-6-methoxy-2-quinoline carboxyl)-D-Cys-Gly-NMe-L--CyS-NMe-L--Cys(Me)]2 (Cysteine Thiol) Dilactone] (I: {Quinaldoyl(3-OH,6-OMe)}-[dC]G[NMeC][NMeC](Me) / II: {Quinaldoyl(3-OH,6-OMe)}-[dC]G[NMeC][NMeC](Me); thioester I:1-II:C, I:C-II:1; disulfide I:3-II:3)
cytotoxic activity (in words) (L1210 cell line): potent activity

CSC[C@H]1C(=O)SC[C@@H](NC(=O)OCC2c3ccccc3-c3ccccc32)C(=O)NCC(=O)N(C)[C@H]2CSSC[C@@H](C(=O)N1C)N(C)C(=O)CNC(=O)[C@H](NC(=O)OCC1c3ccccc3-c3ccccc31)CSC(=O)[C@H](CSC)N(C)C2=O [Compound 32] (I: Fmoc-[dC]G[NMeC][NMeC](Me) / II: Fmoc-[dC]G[NMeC][NMeC](Me); thioester I:1-II:C, I:C-II:1; disulfide I:3-II:3)
cytotoxic activity (in words) (L1210 cell line): inactive

CS[C@H]1SC[C@H]2C(=O)N(C)[C@@H](C(C)C)C(=O)OC[C@@H](NC(=O)c3cnc4ccccc4n3)C(=O)N[C@@H](C)C(=O)N(C)[C@@H]1C(=O)N(C)[C@@H](C(C)C)C(=O)OC[C@@H](NC(=O)c1cnc3ccccc3n1)C(=O)N[C@@H](C)C(=O)N2C [echinomycin, reference compound]
solubility (in words) [2]: low solubility | agent/base pair ratio required to unwind supercoiled DNA (supercoiled ΦX174 DNA; form I to form II gel mobility): 0.044 agent/base pair ratio | agent/base pair ratio for complete rewinding of supercoiled DNA (supercoiled ΦX174 DNA; form II to form I gel mobility): 0.22 agent/base pair ratio | inhibition of HIV-1 reverse transcriptase (in words) [3]: weak inhibitor
